Results published in patent US20230148626A1, “PROTEIN-BASED FORMING AGENT, PREPARATION METHOD AND APPLICATION THEREOF” (NORTHEAST AGRICULTURAL UNIVERSITY, priority 2021, published 2023).

Legend:
α-La [1] = molecular target: T1, α-La (Bos taurus, UniProt P00711); assay: Aggregation of GA in the presence of α-La (ANS fluorescence, CAC breakpoint); type: physicochemical; conditions: in the presence of α-La and ANS
T1 construct: purchased Davisco Foods International
T1 sequence (P00711 20-142): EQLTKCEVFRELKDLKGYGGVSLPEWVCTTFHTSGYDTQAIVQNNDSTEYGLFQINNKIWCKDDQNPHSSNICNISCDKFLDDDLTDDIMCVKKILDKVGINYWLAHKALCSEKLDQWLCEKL
Description: Measurement of aggregation: adding 8-Anilino-1-naphthalenesulfonic acid (ANS) solution (80 microliter (µL), 8 mmol/L) into 4 milliliter (mL) of the mixed solutions prepared in Embodiment 1 and Embodiment 2, respectively, and standing the solutions in the dark for 15 min; measuring the aggregation with a 1 centimeter (cm) light path cuvette, setting the excitation/emission slit of the instrument to 5.0/2.5 nano-meter (nm), the excitation wavelength at 355 nm, and recording the emission spectrum as 360 - 600 nm; recording the value of the most fluorescent intensity.
The threshold concentration required to form small molecular aggregates on the surface of protein is called critical aggregation concentration (CAC), which is usually lower than critical micelle concentration (CMC). […] For example, the minimum value of fluorescence of α-La is recorded under neutral condition and 1.0 mM GA, while the minimum value is observed after adding 2.0 mM GA in acid solution; this is because the pH of the original solution of GA is 4.3, while the carboxylate of GA is protonated and its electrostatic charge is shielded when the pH is 2.5, which leads to the decrease of repulsion between GA molecules and promotes self-assembly of molecules to form aggregates; GA is easier to polymerize under acidic conditions when the concentration of α-La is constant, that is, it has a smaller CAC.

[2] = pH of the original solution of GA; type: physicochemical
α-La [3] = molecular target: T1, α-La; assay: Binding isotherm: number of GA molecules bound per α-La molecule (endogenous fluorescence); conditions: α-La 20 µmol/L, 25 °C
Description: Determination of the number of molecules of glycyrrhizic acid binding α-La: under 25 degree Celsius (°C) and fixed concentration of α-La of 20 µmol/L, adjusting the concentration of GA (0 - 15.0 mM) to obtain a α-La-GA mixed solution; calculating an average value (v) of each protein molecule bound to surfactant molecules by measuring the endogenous fluorescence (λex = 295 nm) of α-La-GA mixed solution, and obtaining a binding isotherm from the change of the average number with the total concentration of GA as shown in FIG. 2.
Binding isotherm allows a good understanding of protein-glycyrrhizic acid binding behavior, with the average value (v) of glycyrrhizic acid molecules bound per protein molecule as the response value being used as a criterion for determination. […] In the region II of 0.02<CGA<1.00 mM, the average value v of bound GA molecules increases slowly but obviously, where the maximum fluorescence intensity is decreased. In the region III between 1.00 mM and 15.00 mM, a large number of synergistic binding appears with the formation of protein aggregates. Moreover, the values v under different pH conditions vary greatly in regions II and III (see Table 1). Acidic conditions can induce more GA molecules to bind with α-La in the process of non-cooperative binding and cooperative binding, which may be due to the fact that the structure of α-La is unfolded under acidic conditions, prompting more hydrophobic groups to be exposed, thus making α-La binding with more GA molecules.

GA concentration at minimum value of fluorescence of α-La (breakpoint, CAC) (α-La [1]; acid solution): 2.0 mM | GA concentration at minimum value of fluorescence of α-La (breakpoint, CAC) (α-La [1]; neutral condition): 1.0 mM | pH of the original solution of GA [2]: 4.3 | average value v of GA molecules bound per protein molecule (α-La [3]; pH 2.5, characteristic area I, CGA 0 - 0.20): 0 - 8.96 | average value v of GA molecules bound per protein molecule (α-La [3]; pH 2.5, characteristic area II, CGA 0.20 - 1.00): 8.96 - 48.95 | average value v of GA molecules bound per protein molecule (α-La [3]; pH 7.0, characteristic area I, CGA 0 - 0.20): 0 - 5.22 | average value v of GA molecules bound per protein molecule (α-La [3]; pH 7.0, characteristic area II, CGA 0.20-1.00): 5.22 - 39.49 | average value v of GA molecules bound per protein molecule (α-La [3]; pH 7.0, characteristic area III, CGA 1.00-15.00): 39.49 - 998.19
SMILES: CC1(C)[C@@H](O[C@H]2O[C@H](C(=O)O)[C@@H](O)[C@H](O)[C@H]2O[C@@H]2O[C@H](C(=O)O)[C@@H](O)[C@H](O)[C@H]2O)CC[C@]2(C)[C@H]3C(=O)C=C4[C@@H]5C[C@@](C)(C(=O)O)CC[C@]5(C)CC[C@@]4(C)[C@]3(C)CC[C@@H]12 [GA, glycyrrhizic acid]
